Here are results for 4 compounds from US8227604B2, “Hybrid 2-aminotetralin and aryl-substituted piperazine compounds and their use in altering CNS activity” (Wayne State University, priority 2001, dated 2012).

The target in one data set is T1, D2 receptor (Homo sapiens, UniProt P14416).
T1 construct: expressed in transfected cells
The data set is described as follows: Binding affinity at cloned human D2 receptor, [3H]YM-09151-2 (CHOp-D2 cells). As to the method: CHOp-cells (human receptors) are grown to confluence in a minimum essential medium (α MEM) containing 10% fetal calf serum, 0.05% pen-strep, and 600 μg/ml of G418. The cells are scraped from the 100 by 20 mm plates and centrifuged at 500. g for 5 min. The pellet is homogenized by polytron in 50 mM Tris-HCl, pH 7.7, and centrifuged at 27,000·G for 12 min. The pellet is resuspended in 50 mM Tris, D2 at 5 mg protein/ml, D3 at 1 mg protein/ml, and stored at −70° C. in 1-ml aliquots.
On the day of the experiment, CHOp-D2 or CHOp-D3 cells are thawed, resuspended in 50 mM Tris, and centrifuged at 27,000·G for 12 min. The pellet is then resuspended at 5 mg protein/80 ml (D2) and 1 mg protein/80 ml (D3) in 50 mM Tris containing 120 mM of NaCl, 5 mM of KCl, 1.5 mM of CaCl2, 4 mM of MgCl2, and 1 mM of EDTA, pH 7.4. […] Nonspecific binding is determined with 1 mM of chlorpromazine. The plates are incubated at 25° C. for 60 min before filtration and counted as usual. The filters are soaked in 0.1% PEI before filtering.

In data set [1] the target is T2, D4 receptor (Homo sapiens, UniProt P21917).
T2 sequence (P21917 1-419): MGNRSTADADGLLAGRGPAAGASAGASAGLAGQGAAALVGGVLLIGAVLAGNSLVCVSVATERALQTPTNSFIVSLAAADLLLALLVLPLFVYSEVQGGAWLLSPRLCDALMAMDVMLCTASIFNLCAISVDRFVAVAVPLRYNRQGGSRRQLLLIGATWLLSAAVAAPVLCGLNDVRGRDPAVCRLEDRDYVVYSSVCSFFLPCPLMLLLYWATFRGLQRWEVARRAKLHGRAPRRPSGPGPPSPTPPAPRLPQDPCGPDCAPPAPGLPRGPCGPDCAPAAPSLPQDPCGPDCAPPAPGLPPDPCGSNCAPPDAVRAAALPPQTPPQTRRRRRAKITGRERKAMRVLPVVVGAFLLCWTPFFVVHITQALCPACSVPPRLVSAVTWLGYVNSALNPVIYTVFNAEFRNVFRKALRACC
Nature of the data set: Agonist potency by [3H]thymidine incorporation (mitogenesis), D4. It is filed as cell-based. Also noted: expressed in transfected cells. The note with it: for EC50 / D4 % Maxm Stim: [3H]thymidine incorporation; for D4 % Maxm Stim: >80% full agonist. As to the method: (§1) Potential as domaminergenic agonists was assayed by ^3H-thymidine incorporation by standard techniques.
The mitogenesis study results presented in Table 7 assay the ability of these ligands to act as agonists or antagonists. The EC50 values thus indicate intrinsic activities or functional activities of these compounds. The value of % maximum stimulation indicates whether a compound is a partial agonist or full agonist. Generally, a value greater than 80% is considered as a full agonist and anything less than 80% is considered as a partial agonist. A compound will be considered antagonist if it produces a negative result (no [3H]thymidine incorporation) in the assay. All the compounds reported in Table 7 are either full agonists or partial agonists.

Data set [2] concerns the target T3, D3 receptor (Homo sapiens, UniProt P35462). Nature of the data set: Agonist potency by [3H]thymidine incorporation (mitogenesis), D3. It is filed as cell-based. Also noted: expressed in transfected cells; host or cells: CHOp-D3 cells. To be noted: for EC50 / Emax: [3H]thymidine incorporation; for Emax: >80% full agonist, read-out: D3 % Maxm Stim. As to the method: as §1
The EC50 values thus indicate intrinsic activities or functional activities of these compounds. The value of % maximum stimulation indicates whether a compound is a partial agonist or full agonist. Generally, a value greater than 80% is considered as a full agonist and anything less than 80% is considered as a partial agonist.
Background: Dividing cells build labelled thymidine or BrdU into new DNA.

The target of data set [3] is T2, D4 receptor. Nature of the data set: Binding affinity at cloned human D4 receptor, [3H]YM-09151-2 (CHO D4.4 cells). The note with it: for Ki: cloned human D4. On the set-up: expressed in transfected cells; host or cells: CHO D4.4 cells. Here is the method: CHO D4.4 cells (human receptors) are grown to confluence in D4 Puromycin medium containing 2 μg/ml puromycin, 5% fetal calf serum and 5 supplemented calf serum and 0.5% pen-strep. The cells are harvested as described for D2 and D3 cells and used at a concentration of 0.15 mg protein/well in the [^3H]YM-09151-2 binding assay.

Data set [4] has as its target T3, D3 receptor. Nature of the data set: Inhibition constants for binding to cloned D3 receptor expressed in HEK cells, [3H]spiperone. To be noted: D3 expressed in HEK cells. Here is the method:
Inhibition constants for binding to cloned D2L and D3 receptors expressed in HEK cells by displacing [^3H] spiperone were measured for several compounds.

T3 sequence (P35462 whole entry): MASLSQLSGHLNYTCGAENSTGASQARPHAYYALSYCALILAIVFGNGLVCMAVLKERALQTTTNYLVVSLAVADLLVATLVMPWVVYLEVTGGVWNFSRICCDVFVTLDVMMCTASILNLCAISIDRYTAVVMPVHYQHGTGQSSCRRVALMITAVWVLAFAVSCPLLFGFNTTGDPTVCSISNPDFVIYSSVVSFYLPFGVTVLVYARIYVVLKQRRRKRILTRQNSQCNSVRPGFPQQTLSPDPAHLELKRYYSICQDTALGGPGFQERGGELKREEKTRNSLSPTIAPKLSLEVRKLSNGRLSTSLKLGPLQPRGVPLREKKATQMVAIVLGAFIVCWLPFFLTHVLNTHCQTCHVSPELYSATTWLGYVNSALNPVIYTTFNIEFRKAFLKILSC
T1 sequence (P14416 whole entry): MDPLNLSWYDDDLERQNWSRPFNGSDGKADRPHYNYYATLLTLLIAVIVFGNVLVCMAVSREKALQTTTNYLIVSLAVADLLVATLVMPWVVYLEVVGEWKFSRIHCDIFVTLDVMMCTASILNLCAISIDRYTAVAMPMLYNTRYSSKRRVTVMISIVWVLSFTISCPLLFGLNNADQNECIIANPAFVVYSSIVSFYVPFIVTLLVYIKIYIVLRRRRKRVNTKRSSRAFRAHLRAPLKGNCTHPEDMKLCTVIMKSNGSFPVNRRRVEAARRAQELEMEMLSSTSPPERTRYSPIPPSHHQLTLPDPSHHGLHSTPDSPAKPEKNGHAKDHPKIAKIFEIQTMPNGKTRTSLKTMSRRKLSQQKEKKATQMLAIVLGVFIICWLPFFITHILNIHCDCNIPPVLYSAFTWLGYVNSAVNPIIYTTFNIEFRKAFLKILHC

A word on the Ki: it is a dissociation constant, usually derived from enzyme kinetics or from competition with a known ligand. Read a low Ki as tighter binding. In general, EC50 refers to the concentration at which the effect is half-maximal. As to `N#CCCCN(CCCCN1CCN(c2ccccc2)CC1)C1CCc2ccc(O)cc2C1` (stereo not shown) [Compound 8, 7-Hydroxy-2-[N-butyonitrile-(N-(4-phenylpiperazin-1-yl)-butyl)amino]tetralin], the Ki at D2 receptor came out at 89.8 ± 32.5 nM; on D4 receptor [3], 142 ± 6.5 nM. Further, the EC50 was 54.8 ± 18.6 nM on D4 receptor [1] and 68.1 ± 36.7 nM on D3 receptor [2]. Also, at D3 receptor [2], the Emax was 67.1 ± 1.93%.

One may read the melting point as the temperature of the solid-liquid transition. Compound `O=C(NCCCCN(CCCCN1CCN(c2ccccc2)CC1)C1CCc2ccc(O)cc2C1)c1ccccc1` (stereo not shown) [Compound 10a, 7-Hydroxyl-2-[N-(4-benzoylaminobutyl)-(N-(4-phenylpiperazin-1-yl)-butyl)amino]tetralin] gave a melting point of 70 to 71 °C. The compound further displayed a Ki at D2 receptor of 119 ± 1.45 nM. Further, on D4 receptor [1], the response was half-maximal at 32.2 ± 2.51 nM (EC50) and the “D4 % Maxm Stim” value is on record as 51.08 ± 1.72%. In addition, at D3 receptor [2], the EC50 was found to be 110 ± 33.3 nM and the Emax was 44.1 ± 11.6%. Besides, the Ki on D4 receptor [3] came to 137 ± 10.2 nM.

For the compound `O=C(NCCN(CCCCN1CCN(c2ccccc2)CC1)C1CCc2ccc(O)cc2C1)c1ccccc1` (stereo not shown) [Compound 10b, 7-Hydroxy-2-[N-(2-benzoylamino)ethyl-(N-(4-phenylpiperazin-1-yl)-butyl)amino]tetralin], at D2 receptor, the affinity, expressed as Ki, was 111 ± 32.2 nM. Further, on D4 receptor [1], the EC50 was 26.7 ± 10.6 nM and the “D4 % Maxm Stim” value amounted to 71.36 ± 10.17%. For the same compound, on D3 receptor [2], the EC50 is 104 ± 57.3 nM and the Emax turned out to be 50.9 ± 12.6%. Further, the Ki at D4 receptor [3] was 35.6 ± 1.42 nM.

As to `CCCN(CCCCN1CCN(c2ccccc2)CC1)C1CCc2ccc(O)cc2C1` (stereo not shown) [Compound 15b, 7-Hydroxyl-2-[N-propyl-(N-(4-phenylpiperazin-1-yl)-butyl)amino]tetralin], the Ki on D2 receptor came to 3.37 ± 0.78 nM; at D3 receptor [4], 3.79 ± 0.4 nM; on D4 receptor [3] it was 25.7 ± 25.7 nM. Further, the EC50 on D4 receptor [1] was 22.5 ± 11 nM; at D3 receptor [2], 0.91 ± 0.46 nM. The “D4 % Maxm Stim” value at D4 receptor [1] is recorded as 102.81 ± 20.21%. Also, the “agonist character at the D4 receptor” value at D4 receptor [1] (functional assay) is listed as “full agonists”. Also, the Emax at D3 receptor [2] turned out to be 74.9 ± 9.05%. Moreover, the “agonist character at the D3 receptor” value on D3 receptor [2] (functional assay) is reported as “partial agonism”. Besides, the “affinity at the D4 receptor” value on D4 receptor [3] is given as “good affinity”.
